Reference: patent US20180299431A1, “Explant Assay to Determine the Potential for Compositions to Promote or to Inhibit Neural Tube Defects” (Board of Supervisors of Louisiana State University and …, priority 2015, published 2018)

What was measured:
[1] = system: diabetic NOD pregnancies; assay: NOD diabetic pregnancies and folinic acid supplementation; format: in vivo, mouse
Experimental: All animal experiments were performed with prior approval from the Pennington Biomedical Research Center IACUC, and were conducted in accordance with the “Guide for the care and use of laboratory animals” of the United States National Institutes of Health. Animals were housed with a 12-hour light/dark cycle, with access to food and water ad libitum. Mice of the Non-Obese Diabetic strain (NOD/ShiLtJ, The Jackson Laboratory, Bar Harbor, Me.; sometimes referred to as “NOD” mice), as well as male mice of strain FVB were kept on Purina™ 5001 diet (calories provided by: Protein, 28.5%; Fat, 13.5%; Carbohydrate, 58%. LabDiet, Purina Mills Inc., Gray Summit, Mo.). Females of strain FVB were kept on Purina 5015 diet (calories provided by: Protein, 19.8%; Fat, 25.3%; Carbohydrate, 54.8%). Blood glucose levels were monitored weekly in NOD mice. Once blood glucose exceeded 250 mg/dl, females were considered diabetic, and were then used for mating and production of embryos. Diabetic as well as normoglycemic NOD female mice were mated to normoglycemic NOD male mice; once NOD males became hyperglycemic, they were retired from the experiment and were no longer used. Supplementation with folinic acid (12.5 mg/kg body weight, once per week by intraperitoneal injection) was initiated at the age of 10 weeks in 56 NOD females. […]

[2] = system: STZ-induced diabetic mouse pregnancies; settings: cited from earlier work

SMILES | NTD incidence (in words) ([1]; NOD strain, folinic acid supplementation) | incidence of neural tube defects in embryos ([1]; diabetic NOD pregnancies, gestation day 10.5, 12.5 mg/kg once per week i.p., 17 NTDs in 81 embryos, unsupplemented 40.2%, Fisher's Exact Test p=0.006) [%] | effect on NTDs (in words) [2]
Nc1nc(=O)c2c([nH]1)NCC(CNc1ccc(C(=O)N[C@@H](CCC(=O)O)C(=O)O)cc1)N2C=O (mixture of isomers) [folinic acid] | reduced | 21 | –
Nc1nc2ncc(CNc3ccc(C(=O)N[C@@H](CCC(=O)O)C(=O)O)cc3)nc2c(=O)[nH]1 [folic acid] | – | – | beneficial effects
